The values that follow come from patent US20120196824A1, “THERAPEUTIC AGENT FOR CEREBRAL INFARCTION” (MITSUBISHI TANABE PHARMA CORPORATION, priority 2009, published 2012).

Structures are written as SMILES. Counter-ions that a name gives are not always drawn. Where only a bound is given, the exact number is not on record here.

In test [1] the test system is Mouse Ischemic Stroke Model. The experiment in a line: Infarct volume suppressive and motor function improving effects in mouse ischemic stroke model (Rose Bengal photothrombosis, TTC staining, Rota-rod). The conditions noted are these: dose of 10 mg/kg. It counts as in vivo. The method, then: Mouse was fixed under isoflurane anesthesia and the scalp was incised. Rose Bengal (7.5 mg/kg) was administered i.v., and green light (550 nm, Hamamatsu Photonics, K.K.) was immediately irradiated at 2 mm side and 1 mm above the bregma for 5 min. Thereafter, the scalp was bonded with an instant glue. To the test drug and control groups was given the first administration after the mice awoke, and they were subjected to the administration again the next day. Two days later, motor function was evaluated by Rota-rod (up to 60 sec, walking time on Rota-Rod was measured). Then the brain was removed, sliced in 1 mm, the site of infaction was decided by 1% TTC staining and the volume was measured by image analysis. The infarct volume suppression rate (%) and walking time (%) on Rota-Rod with Vehicle 100% at the dose of 10 mg/kg are shown in the following Table. In addition, walking time (sec) on Rota-Rod and infarct volume suppression rate (mm^3) when 3-deazaadenosine was used as a test drug are shown in FIG. 1 and FIG. 2.
In general terms: Falling from the rotarod earlier than controls is read as motor impairment.

The target of test [2] is T1, Human-recombinant-S-Adenosyl-L-Homocysteine Hydrolase (Homo sapiens, UniProt P23526).
T1 construct: purchased Diazyme Laboratories
The test is described as follows: Measurement of enzyme inhibitory activity (hydrolysis of S-Adenosyl-L-Homocysteine, HPLC). To be noted: S-Adenosyl-L-Homocysteine 10 μM, pH 7.2, 37° C., 15 min. It counts as biochemical. The method, then: The enzyme inhibitory activity of the compounds of the Examples was measured using the hydrolysis activity of S-Adenosyl-L-Homocysteine as an index. The measurement method was modification of the method of Henry H. Richards et al. (J. Biol. Chem. 253, 4476-4480, 1978). That is, S-Adenosyl-L-Homocysteine (10 μM) and Adenosine Deaminase (Roche) (4 units) were added to 50 mM phosphate buffer (pH 7.2, containing 1 mM EDTA) with the total amount being 200 μl, and to the solution were added a test substance and then Human-recombinant-S-Adenosyl-L-Homocysteine Hydrolase (50 ng, Diazyme Laboratories) to start the reaction, and the mixture was incubated at 37° C. for 15 min. The reaction was quenched by the addition of 1N aqueous perchloric solution (20 μl), and the mixture was centrifuged under the conditions of 10000 rpm, 5 min, 4° C. The supernatant was collected, and the amount of S-Adenosyl-L-Homocysteine after the reaction was quantified by HPLC. The column used was a reversed-phase column. The detailed conditions of HPLC were as follows.
column used: Wakopak^R HandyODS 150*4.6 mm (Wako Pure Chemical Industries, Ltd.) elution condition: 1.0 ml/min elution solvent: 0.1M acetate buffer (pH 4.0) containing 10 mM 1-heptanesulfonic acid containing 4% acetonitrile wavelength: 258 nm (UV) The inhibitory rate was determined with the amount of decrease in S-Adenosyl-L-Homocysteine before and after the reaction without using the test substance as 100%.
Inhibitory rate (%)={(amount of decrease of S-Adenosyl-L-Homocysteine in the presence of test substance)/(amount of decrease of S-Adenosyl-L-Homocysteine in the absence of test substance)}×100

Test [3] relates to homocysteine synthesis. The test is described as follows: Measurement of homocysteine synthesis inhibitory activity in vivo (methionine-loaded mouse, plasma homocysteine). To be noted: dose of 10 mg/kg, oral, BALB/c mouse; methionine water 1 hr later; plasma 30 min after; read-out: activity (homocysteine synthesis inhibitory rate). The method, then:
A sample was orally administered to BALB/c mouse and, 1 hr later, methionine water (50 g/L) was orally administered at a proportion of 10 ml/kg. 30 min later, blood samples were collected with heparin from the abdominal vein and plasma was obtained. The plasma homocysteine concentration was measured by treating the plasma with tributylphosphine, removing protein with 10% trichloroacetic acid (TCA), fluorescent labeling the supernatant with 4-fluoro-7-sulfobenzofurazan ammonium salt (SBD-F) under alkali conditions, and quantifying by HPLC. The homocysteine synthesis inhibitory rate of the sample was determined with the difference in the homocysteine value between methionine water-loaded animal and methionine water-unloaded animal as 100%. The detailed conditions of HPLC were as follows.
column used: Wakopak^R HandyODS 150*4.6 mm (Wako Pure Chemical Industries, Ltd.) elution condition: 1.0 ml/min elution solvent: 0.1M phosphate buffer (pH 6.0) 2% methanol wavelength: ex 385 nm em 515 nm

For orientation: IC50 means the concentration that gives 50% inhibition.

T1 sequence (P23526 whole entry): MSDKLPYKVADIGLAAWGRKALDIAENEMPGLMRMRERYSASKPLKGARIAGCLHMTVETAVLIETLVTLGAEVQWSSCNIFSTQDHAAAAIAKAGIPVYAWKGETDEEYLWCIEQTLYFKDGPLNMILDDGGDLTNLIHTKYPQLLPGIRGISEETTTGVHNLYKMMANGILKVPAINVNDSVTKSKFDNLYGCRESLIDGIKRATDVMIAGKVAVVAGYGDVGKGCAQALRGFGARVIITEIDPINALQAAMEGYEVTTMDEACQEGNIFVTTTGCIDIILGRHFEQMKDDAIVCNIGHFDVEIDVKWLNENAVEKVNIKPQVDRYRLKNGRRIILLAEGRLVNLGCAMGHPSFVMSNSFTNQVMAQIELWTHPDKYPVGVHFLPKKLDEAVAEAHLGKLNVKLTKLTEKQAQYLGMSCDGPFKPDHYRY

For the compound `Nc1nccc2c1ncn2[C@@H]1O[C@H](CO)[C@@H](O)[C@H]1O` [3-deazaadenosine, reference compound], the “infarct volume suppression rate (%)” value in test [1] (two administrations, measured two days later, TTC staining) came to 14%. Also, in test [1] (walking time on Rota-Rod with Vehicle 100%, two days later), the “walking time (%)” value is reported as 170%.

On to `Cc1ccc(C#N)cc1N(CC(=O)NCCNC(C)C)CC(=O)N(C)N1Cc2ccccc2C1` [Example 1, N^2-(5-cyano-2-methylphenyl)-N^2-{2-[1,3-dihydro-2H-isoindol-2-yl(methyl)amino]-2-oxoethyl}-N^1-[2-(isopropylamino)ethyl]glycinamide dihydrochloride], for which the half-maximal inhibitory concentration (IC50) in test [2] is 68 nM. For the same compound, the inhibition in vivo at 10 mg/kg in test [3] was no less than 40%.

For the compound `CCNCCNC(=O)CN(CC(=O)N(C)N1Cc2ccccc2C1)c1cc(C#N)ccc1C` [Example 2, N^2-(5-cyano-2-methylphenyl)-N^2-{2-[1,3-dihydro-2H-isoindol-2-yl(methyl)amino]-2-oxoethyl}-N^1-[2-(ethylamino)ethyl]glycinamide dihydrochloride], the IC50 in test [2] came to 92 nM. In addition, the inhibition in vivo at 10 mg/kg in test [3] is no less than 40%.

As for `Cc1nc(-c2ccc(C)c(N(CC(=O)NCCNC(C)C)CC(=O)N(C)N3Cc4ccc(F)cc4C3)c2)no1` [Example 21, N^2-{2-[(5-fluoro-1,3-dihydro-2H-isoindol-2-yl)(methyl)amino]-2-oxoethyl}-N^2-[2-methyl-5-(5-methyl-1,2,4-oxadiazol-3-yl)phenyl]-N^1-[2-(isopropylamino)ethyl]glycinamide], the IC50 in test [2] stood at 89 nM. For the same compound, the inhibition in vivo at 10 mg/kg in test [3] was no less than 40%.

On to `CCNCCNC(=O)CN(CC(=O)N(C)N1Cc2ccc(OC)cc2C1)c1cc(-c2noc(C)n2)ccc1C` [Example 24, N^2-{2-[(5-methoxy-1,3-dihydro-2H-isoindol-2-yl)(methyl)amino]-2-oxoethyl}-N^2-[2-methyl-5-(5-methyl-1,2,4-oxadiazol-3-yl)phenyl]-N^1-[2-(ethylamino)ethyl]glycinamide], for which the half-inhibitory concentration (IC50) in test [2] came out at 46 nM. Also, in test [3], the inhibition in vivo at 10 mg/kg lay within 20 to 40%.

For `Cc1nc(-c2ccc(N(CC(=O)NCCNC(C)C)CC(=O)N(C)N3Cc4ccccc4C3)c(C)c2)no1` [Example 64, N^2-{2-[1,3-dihydro-2H-isoindol-2-yl(methyl)amino]-2-oxoethyl}-N^2-[2-methyl-4-(5-methyl-1,2,4-oxadiazol-3-yl)phenyl]-N^1-[2-(isopropylamino)ethyl]glycinamide], the half-inhibitory concentration (IC50) in test [2] was 103 nM. For the same compound, in test [3], the inhibition in vivo at 10 mg/kg was no less than 40%.

As to `Cc1ccc(-c2nn(C)c(=O)o2)cc1N(CC(=O)NCCNC(C)C)CC(=O)N(C)N1Cc2ccccc2C1` [Example 88, N^2-{2-[1,3-dihydro-2H-isoindol-2-yl(methyl)amino]-2-oxoethyl}-N^2-[2-methyl-5-(4-methyl-5-oxo-4,5-dihydro-1,3,4-oxadiazol-2-yl)phenyl]-N^1-[2-(isopropylamino)ethyl]glycinamide], in test [2], the IC50 was determined as 43 nM. The inhibition in vivo at 10 mg/kg in test [3] is 20 to 40%.

Turning to `CCNCCNC(=O)CN(CC(=O)N(C)N1Cc2ccccc2C1)c1cc(-c2nn(C)c(=O)o2)ccc1C` [Example 89, N^2-{2-[1,3-dihydro-2H-isoindol-2-yl(methyl)amino]-2-oxoethyl}-N^2-[2-methyl-5-(4-methyl-5-oxo-4,5-dihydro-1,3,4-oxadiazol-2-yl)phenyl]-N^1-[2-(ethylamino)ethyl]glycinamide], the IC50 in test [2] was 53 nM. In test [3], the inhibition in vivo at 10 mg/kg lay within 20 to 40%.

For `CCNCCNC(=O)CN(CC(=O)N(C)N1Cc2ccccc2C1)c1cc(-c2nn(CC)c(=O)o2)ccc1C` [Example 92, N^2-{2-[1,3-dihydro-2H-isoindol-2-yl(methyl)amino]-2-oxoethyl}-N^2-[5-(4-ethyl-5-oxo-4,5-dihydro-1,3,4-oxadiazol-2-yl)-2-methylphenyl]-N^1-[2-(ethylamino)ethyl]glycinamide], the 50% inhibitory concentration (IC50) in test [2] amounted to 48 nM. Moreover, in test [3], the inhibition in vivo at 10 mg/kg is no less than 40%.

Take `CCN1C(=O)CCc2cc(N(CC(=O)NCCNC(C)C)CC(=O)N(C)N3Cc4ccccc4C3)c(C)cc21` [Example 176, N^2-{2-[1,3-dihydro-2H-isoindol-2-yl(methyl)amino]-2-oxoethyl}-N^2-(1-ethyl-7-methyl-2-oxo-1,2,3,4-tetrahydroquinolin-6-yl)-N^1-[2-(isopropylamino)ethyl]glycinamide]: the IC50 in test [2] amounted to 63 nM. Further, the inhibition in vivo at 10 mg/kg in test [3] was no less than 40%.

Regarding `Cc1cc2c(C)noc2cc1N(CC(=O)NCCNC(C)C)CC(=O)N(C)N1Cc2ccccc2C1` [Example 184, N^2-{2-[1,3-dihydro-2H-isoindol-2-yl(methyl)amino]-2-oxoethyl}-N^2-(3,5-dimethyl-1,2-benzisoxazol-6-yl)-N^1-[2-(isopropylamino)ethyl]glycinamide], in test [2], the IC50 came to 37 nM. In test [3], the inhibition in vivo at 10 mg/kg is no less than 40%.

In the case of `CCNCCNC(=O)CN(CC(=O)N(C)N1Cc2ccccc2C1)c1cc2onc(C)c2cc1C` [Example 185, N^2-{2-[1,3-dihydro-2H-isoindol-2-yl(methyl)amino]-2-oxoethyl}-N^2-(3,5-dimethyl-1,2-benzisoxazol-6-yl)-N^1-[2-(ethylamino)ethyl]glycinamide], the concentration for half-maximal inhibition (IC50) in test [2] turned out to be 8 nM. In addition, the inhibition in vivo at 10 mg/kg in test [3] is no less than 40%.

On to `CCNCCNC(=O)CN(CC(=O)N(C)N1Cc2ccccc2C1)c1ccc(-c2nc(C)no2)cc1C` [Example 229, N^2-{2-[1,3-dihydro-2H-isoindol-2-yl(methyl)amino]-2-oxoethyl}-N^2-[2-methyl-4-(3-methyl-1,2,4-oxadiazol-5-yl)phenyl]-N^1-[2-(ethylamino)ethyl]glycinamide], for which the IC50 in test [2] worked out at 35 nM. Further, the inhibition in vivo at 10 mg/kg in test [3] is no less than 40%.

`CCNCCNC(=O)CN(CC(=O)N(C)N1Cc2ccccc2C1)c1cc2cnn(C)c2cc1C` [Example 241, N^2-{2-[1,3-dihydro-2H-isoindol-2-yl(methyl)amino]-2-oxoethyl}-N^2-(1,6-dimethyl-1H-indazol-5-yl)-N^1-[2-(ethylamino)ethyl]glycinamide hydrochloride]: in test [2], the concentration for half-maximal inhibition (IC50) was found to be 9 nM. The inhibition in vivo at 10 mg/kg in test [3] was no less than 40%.

For the compound `CCNCCNC(=O)CN(CC(=O)N(C)N1Cc2ccc(F)cc2C1)c1cc2nn(CC(F)F)cc2cc1C` [Example 268, N^2-[2-(2,2-difluoroethyl)-5-methyl-2H-indazol-6-yl]-N^2-{2-[(5-fluoro-1,3-dihydro-2H-isoindol-2-yl)(methyl)amino]-2-oxoethyl}-N^1-[2-(ethylamino)ethyl]glycinamide hydrochloride], the inhibition in vivo at 10 mg/kg in test [3] was less than 20%.

In the case of `CCNCCNC(=O)CN(CC(=O)N(C)N1Cc2ccc(F)cc2C1)c1cc(-c2noc(CO)n2)ccc1C` [Example 292, N^2-{2-[(5-fluoro-1,3-dihydro-2H-isoindol-2-yl)(methyl)amino]-2-oxoethyl}-N^2-{5-[5-(hydroxymethyl)-1,2,4-oxadiazol-3-yl]-2-methylphenyl}-N^1-[2-(ethylamino)ethyl]glycinamide hydrochloride], the inhibition in vivo at 10 mg/kg in test [3] fell in the range of 20 to 40%.

Regarding `CCNCCNC(=O)CN(CC(=O)N(C)N1Cc2ccccc2C1)c1ccc(-c2nc(C(=O)N(C)C)cs2)cc1C` [Example 304, N^2-{2-[1,3-dihydro-2H-isoindol-2-yl(methyl)amino]-2-oxoethyl}-N^2-[4-{4-[(dimethylamino)carbonyl]-1,3-thiazol-2-yl}-2-methylphenyl]-N^1-[2-(ethylamino)ethyl]glycinamide dihydrochloride], the inhibition in vivo at 10 mg/kg in test [3] is no less than 40%.
